The supplement of paper PMC11061612

Legend:
Experiment in all cases: combination Emax (second highest fraction inhibited in the dose matrix, 72 h); higher = more inhibition; extreme values may be limits of the assay
[1] = test system: CAL-148 (Breast Carcinoma)
In short: (§1)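 Cell lines grown in DMEM/F12 or RPMI with 10% FBS were plated in 1536-well plates and held 24 hours at 37°C, 5% CO2 before 72 hours of exposure to two-drug dose matrices, with DMSO typically at 0.2%. CellTiter-Glo 2.0 luminescence gave viability, which was converted to inhibition. Vehicle wells were set to 0 and blank wells to 1. Combination Emax is the second-highest inhibition in the matrix, and Bliss excess is the observed combination effect minus the expected EA + EB − EA·EB, where EA and EB are the single-agent effects.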

[2] = test system: CCRF-CEM (T-Lymphoblastic Leukemia)
In short: as §1

[3] = test system: Calu-3 (Lung Adenocarcinoma)
In short: as §1

[4] = test system: HCC-78 (Lung Adenocarcinoma)
In short: as §1

[5] = test system: HO-1-N-1 (Oral Cavity Carcinoma)
In short: as §1

HOS (Osteosarcoma) = test system: HOS (Osteosarcoma)
In short: as §1

[6] = test system: HT-1376 (Bladder Carcinoma)
In short: as §1

[7] = test system: Hs-578-T (Breast Carcinoma)
In short: as §1

KELLY (Neuroblastoma) = test system: KELLY (Neuroblastoma)
In short: as §1

[8] = test system: LB831-BLC (Bladder Carcinoma)
In short: as §1

[9] = test system: LS-180 (Colorectal Carcinoma)
In short: as §1

[10] = test system: ME-1 (Acute Myeloid Leukemia)
In short: as §1

NB10 (Neuroblastoma) = test system: NB10 (Neuroblastoma)
In short: as §1

[11] = test system: NCI-H82 (Small Cell Lung Carcinoma)
In short: as §1

[12] = test system: RO82-W-1 (Thyroid Gland Carcinoma)
In short: as §1

[13] = test system: Ramos-2G6-4C10 (Burkitt's Lymphoma)
In short: as §1

T98G (Glioblastoma) = test system: T98G (Glioblastoma)
In short: as §1

[14] = test system: TE-15 (Esophageal Squamous Cell Carcinoma)
In short: as §1

[15] = test system: TE-9 (Esophageal Squamous Cell Carcinoma)
In short: as §1

[16] = test system: UM-UC-3 (Bladder Carcinoma)
In short: as §1

Row | Structure (SMILES) | combination Emax [1] | combination Emax [2] | combination Emax [3] | combination Emax [4] | combination Emax [5] | combination Emax (HOS (Osteosarcoma)) | combination Emax [6] | combination Emax [7] | combination Emax (KELLY (Neuroblastoma)) | combination Emax [8] | combination Emax [9] | combination Emax [10] | combination Emax (NB10 (Neuroblastoma)) | combination Emax [11] | combination Emax [12] | combination Emax [13] | combination Emax (T98G (Glioblastoma)) | combination Emax [14] | combination Emax [15] | combination Emax [16]
1 | Cc1nc(-c2cn3c(n2)-c2ccc(-c4cnn(C(C)(C)C(N)=O)c4)cc2OCC3)n(C(C)C)n1 [Taselisib] + O=C(Nc1ccc2[nH]nc(-c3ccncc3)c2c1)[C@@H]1CCN(CC(=O)N2CCN(c3ccc(-c4ncccn4)cc3)CC2)C1 [SCH772984] (first compound max 10 µM, 7x7, partner max 5 µM) | 0.964 | 0.611 | 0.855 | 0.664 | 0.999 | 0.564 | 0.227 | 0.89 | 0.635 | 0.641 | 0.867 | 0.272 | 0.791 | 0.429 | 0.193 | 0.163 | 0.851 | 0.832 | 0.691 | 0.716
2 | CC1(C)CCC(CN2CCN(c3ccc(C(=O)NS(=O)(=O)c4ccc(NCC5CCOCC5)c([N+](=O)[O-])c4)c(Oc4cnc5[nH]ccc5c4)c3)CC2)=C(c2ccc(Cl)cc2)C1 [Venetoclax] + CS(=O)(=O)CCNCc1ccc(-c2ccc3ncnc(Nc4ccc(OCc5cccc(F)c5)c(Cl)c4)c3c2)o1 [Lapatinib] (first compound max 1 µM, 7x7, partner max 10 µM) | 0.235 | 0.501 | 0.74 | 0.143 | 0.668 | 0.13 | 0.194 | 0.554 | 0.947 | 0.202 | 0.298 | 1 | 0.0761 | 0.279 | 0.144 | 0.241 | 0.179 | 0.742 | 0.189 | 0.104
